“Also recorded” adds a separate entry of the source.
Columns and labels:
[1] = Hygroscopicity (DVS moisture sorption/desorption) studies; type: physicochemical; settings: for hygroscopicity / XRPD pattern / solid form after full adsorption/desorption cycle: DVS; for hygroscopicity: 0-95% RH; for XRPD pattern / solid form after full adsorption/desorption cycle: 0-95-0% RH; for moisture sorption mass change of the starting mass: RH increased from about 0% to about 95% RH, about 25° C.
Method: Hygroscopicity studies. The hygroscopicity of various solid forms was studied using a Surface Measurement Systems DVS instrument. Typically a sample size of between about 10-50 mg was loaded into the DVS instrument sample pan and the sample was analyzed on a DVS automated sorption analyzer at about 25° C. The relative humidity was increased in increments of about 10% from about 0% to about 95% RH. The relative humidity was then decreased in a similar manner to accomplish a full adsorption/desorption cycle. The mass was recorded at periodic intervals throughout the experiment.

[2] = Interconversion studies of solid forms; type: physicochemical; settings: EQ in acetone:ethanol (1:1) at 25° C., at least 2 days
Method: Interconversion Studies. Interconversion experiments were performed by making slurries of a solid form in a saturated solvent. The slurries were agitated for at least 2 days at about 25° C. The saturated solution was removed by filtration and the solid was dried in the air.

[3] = Stability studies of solid forms; type: physicochemical; settings: for Stability: Analysis by XRPD (solid form after stress) / Stability: Appearance: 40° C./75% RH, 4 weeks
Method: Stability Studies. The stabilities of Forms A, B, C and D were studied by exposing the solid samples to the stress condition of 40° C./75% RH for four weeks. Moreover, the stabilities of Forms A, B, C and D in different solvents were studied by equilibration in different solvents at 40° C. for four weeks. The slurries then were filtered and dried in the air. Solid samples obtained from the stability experiments were analyzed by XRPD and DSC.

[4] = Compression studies of solid forms; settings: 2000 psi for at least one minute
human PDE2 = human PDE2 (Homo sapiens, UniProt O00408); assay: PDE2 enzyme assay; type: biochemical; settings: from Table 1 data
Sequence of human PDE2 (O00408 whole entry): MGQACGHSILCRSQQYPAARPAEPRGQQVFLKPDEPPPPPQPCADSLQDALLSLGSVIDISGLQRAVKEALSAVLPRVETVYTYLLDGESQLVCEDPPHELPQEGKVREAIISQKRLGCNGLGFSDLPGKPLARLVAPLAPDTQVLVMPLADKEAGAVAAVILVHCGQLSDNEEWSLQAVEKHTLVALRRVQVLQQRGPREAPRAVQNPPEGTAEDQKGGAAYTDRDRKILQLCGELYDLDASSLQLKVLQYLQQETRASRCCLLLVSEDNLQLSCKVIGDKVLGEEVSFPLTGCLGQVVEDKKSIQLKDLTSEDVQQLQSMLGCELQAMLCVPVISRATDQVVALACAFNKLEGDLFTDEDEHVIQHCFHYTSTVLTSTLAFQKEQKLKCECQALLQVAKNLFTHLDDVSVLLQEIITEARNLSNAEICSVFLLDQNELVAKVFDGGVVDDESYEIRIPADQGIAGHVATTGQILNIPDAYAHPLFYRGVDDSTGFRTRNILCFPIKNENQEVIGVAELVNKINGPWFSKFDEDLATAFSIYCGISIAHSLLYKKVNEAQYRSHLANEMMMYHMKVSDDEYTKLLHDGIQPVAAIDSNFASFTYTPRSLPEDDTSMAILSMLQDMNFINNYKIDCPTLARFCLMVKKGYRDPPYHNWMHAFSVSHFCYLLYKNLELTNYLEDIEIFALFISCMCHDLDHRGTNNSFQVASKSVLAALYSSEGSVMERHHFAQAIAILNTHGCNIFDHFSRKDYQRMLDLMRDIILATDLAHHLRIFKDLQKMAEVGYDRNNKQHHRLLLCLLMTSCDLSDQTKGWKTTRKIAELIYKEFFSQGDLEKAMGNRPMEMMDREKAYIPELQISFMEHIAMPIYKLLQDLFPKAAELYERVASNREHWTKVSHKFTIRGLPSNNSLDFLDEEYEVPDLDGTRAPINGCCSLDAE

[5] = biological target: PDE5 from human platelets (Homo sapiens, UniProt O76074); assay: PDE5 enzyme assay; type: biochemical; settings: from Table 1 data
bovine PDE1 = assay: PDE1 enzyme assay; type: biochemical
[6] = biological target: PDE3 from human platelets (Homo sapiens, UniProt Q14432); assay: PDE3 enzyme assay; type: biochemical; settings: from Table 1 data
Sequence of PDE3 from human platelets (Q14432 whole entry): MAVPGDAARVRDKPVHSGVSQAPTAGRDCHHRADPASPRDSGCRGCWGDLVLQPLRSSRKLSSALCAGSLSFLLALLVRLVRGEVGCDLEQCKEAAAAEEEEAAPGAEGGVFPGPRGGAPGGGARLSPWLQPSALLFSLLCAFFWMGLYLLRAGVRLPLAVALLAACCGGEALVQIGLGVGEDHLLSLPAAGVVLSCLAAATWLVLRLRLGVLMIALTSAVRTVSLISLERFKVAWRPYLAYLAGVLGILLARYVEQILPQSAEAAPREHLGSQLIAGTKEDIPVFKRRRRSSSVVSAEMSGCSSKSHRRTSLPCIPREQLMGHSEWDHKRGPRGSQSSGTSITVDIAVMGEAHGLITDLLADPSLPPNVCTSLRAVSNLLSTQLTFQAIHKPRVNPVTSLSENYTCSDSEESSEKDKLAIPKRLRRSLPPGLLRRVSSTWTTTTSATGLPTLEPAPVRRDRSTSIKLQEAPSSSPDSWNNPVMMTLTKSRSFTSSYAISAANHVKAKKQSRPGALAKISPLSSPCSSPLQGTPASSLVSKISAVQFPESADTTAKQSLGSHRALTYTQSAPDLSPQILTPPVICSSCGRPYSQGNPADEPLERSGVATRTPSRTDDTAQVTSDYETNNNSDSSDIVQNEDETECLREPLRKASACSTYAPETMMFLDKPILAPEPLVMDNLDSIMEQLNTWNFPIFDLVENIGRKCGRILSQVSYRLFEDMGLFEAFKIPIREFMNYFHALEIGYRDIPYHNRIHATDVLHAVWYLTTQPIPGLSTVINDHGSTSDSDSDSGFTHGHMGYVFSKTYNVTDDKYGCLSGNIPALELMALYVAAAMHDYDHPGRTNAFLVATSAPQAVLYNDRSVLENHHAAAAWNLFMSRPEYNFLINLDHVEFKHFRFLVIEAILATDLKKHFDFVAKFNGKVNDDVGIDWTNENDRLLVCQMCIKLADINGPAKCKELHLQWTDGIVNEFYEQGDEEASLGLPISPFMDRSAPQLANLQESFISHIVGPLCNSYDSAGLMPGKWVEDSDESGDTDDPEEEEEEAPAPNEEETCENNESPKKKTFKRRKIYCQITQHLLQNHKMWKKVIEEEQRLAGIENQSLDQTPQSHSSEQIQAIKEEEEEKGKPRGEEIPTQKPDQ

PDE4 (from U937 cells) = assay: PDE4 (U937 cell-derived) enzyme assay; type: biochemical, human; settings: 1 μM cAMP
[7] = EQ in ethanol at 40° C. for 4 weeks
[8] = EQ in heptane at 40° C. for 4 weeks
[9] = EQ in toluene at 40° C. for 4 weeks
[10] = EQ in water at 40° C. for 4 weeks

Structure (SMILES): CCOc1cc(C(CS(C)(=O)=O)N2C(=O)c3cccc(NC(C)=O)c3C2=O)ccc1OC (single isomer, unassigned; (+)) [Form E, (+)-2-[1-(3-ethoxy-4-methoxyphenyl)-2-methylsulfonylethyl]-4-acetylaminoisoindoline-1,3-dione]
- hygroscopicity [1]: hygroscopic
- XRPD pattern / solid form after full adsorption/desorption cycle [1]: substantially unchanged; also recorded: none of the forms analyzed underwent substantial solid-state transformation
- moisture sorption mass change of the starting mass [1]: about 5.1%
- Interconversion: Analysis by XRPD (solid form after equilibration) [2]: Form B

Structure (SMILES): CCOc1cc(C(CS(C)(=O)=O)N2C(=O)c3cccc(NC(C)=O)c3C2=O)ccc1OC (single isomer, unassigned; (+)) [Form D, (+)-2-[1-(3-ethoxy-4-methoxyphenyl)-2-methylsulfonylethyl]-4-acetylaminoisoindoline-1,3-dione]
- Stability: Analysis by XRPD (solid form after stress) [3]: stable; also recorded: Form D
- Stability: Appearance [3]: White solid
- Stability: Analysis by XRPD (solid form after equilibration) [3, 7]: converts to Form B
- Stability: Analysis by XRPD (solid form after equilibration) [3, 8]: converts to Form B
- Stability: Analysis by XRPD (solid form after equilibration) [3, 9]: converts to Form C
- Stability: Analysis by XRPD (solid form after equilibration) [3, 10]: converts to Form B
- physical stability upon compression (XRPD) [4]: substantially physically stable
- hygroscopicity [1]: slightly hygroscopic
- XRPD pattern / solid form after full adsorption/desorption cycle [1]: substantially unchanged; also recorded: none of the forms analyzed underwent substantial solid-state transformation
- moisture sorption mass change of the starting mass [1]: about 1.5%
- Interconversion: Analysis by XRPD (solid form after equilibration) [2]: Form B

Structure (SMILES): CCOc1cc(C(CS(C)(=O)=O)N2C(=O)c3cccc(NC(C)=O)c3C2=O)ccc1OC (single isomer, unassigned; (+)) [Form C, (+)-2-[1-(3-ethoxy-4-methoxyphenyl)-2-methylsulfonylethyl]-4-acetylaminoisoindoline-1,3-dione]
- Stability: Analysis by XRPD (solid form after stress) [3]: stable; also recorded: Form C
- Stability: Appearance [3]: Yellow solid
- Stability: Analysis by XRPD (solid form after equilibration) [3, 7]: stable; also recorded: Form C
- Stability: Analysis by XRPD (solid form after equilibration) [3, 8]: stable; also recorded: Form C
- Stability: Analysis by XRPD (solid form after equilibration) [3, 9]: stable; also recorded: Form C
- Stability: Analysis by XRPD (solid form after equilibration) [3, 10]: stable; also recorded: Form C
- physical stability upon compression (XRPD) [4]: substantially physically stable
- hygroscopicity [1]: substantially nonhygroscopic
- XRPD pattern / solid form after full adsorption/desorption cycle [1]: substantially unchanged; also recorded: none of the forms analyzed underwent substantial solid-state transformation
- moisture sorption mass change of the starting mass [1]: about 0.5%
- Interconversion: Analysis by XRPD (solid form after equilibration) [2]: Form C

Structure (SMILES): CCOc1cc(C(CS(C)(=O)=O)N2C(=O)c3cccc(NC(C)=O)c3C2=O)ccc1OC (single isomer, unassigned; (+)) [Form G, (+)-2-[1-(3-ethoxy-4-methoxyphenyl)-2-methylsulfonylethyl]-4-acetylaminoisoindoline-1,3-dione]
- hygroscopicity [1]: substantially nonhygroscopic
- XRPD pattern / solid form after full adsorption/desorption cycle [1]: substantially unchanged; also recorded: none of the forms analyzed underwent substantial solid-state transformation
- moisture sorption mass change of the starting mass [1]: about 0.4%
- Interconversion: Analysis by XRPD (solid form after equilibration) [2]: converts to Form B

Structure (SMILES): CCOc1cc(C(CS(C)(=O)=O)N2C(=O)c3cccc(NC(C)=O)c3C2=O)ccc1OC (single isomer, unassigned; (+)) [Form A, (+)-2-[1-(3-ethoxy-4-methoxyphenyl)-2-methylsulfonylethyl]-4-acetylaminoisoindoline-1,3-dione]
- Stability: Analysis by XRPD (solid form after stress) [3]: stable; also recorded: Form A
- Stability: Appearance [3]: White solid
- Stability: Analysis by XRPD (solid form after equilibration) [3, 7]: stable; also recorded: Form F
- Stability: Analysis by XRPD (solid form after equilibration) [3, 8]: stable; also recorded: Form A
- Stability: Analysis by XRPD (solid form after equilibration) [3, 9]: converts to Form C
- Stability: Analysis by XRPD (solid form after equilibration) [3, 10]: stable; also recorded: Form A
- physical stability upon compression (XRPD) [4]: substantially physically stable
- hygroscopicity [1]: substantially nonhygroscopic
- XRPD pattern / solid form after full adsorption/desorption cycle [1]: substantially unchanged; also recorded: none of the forms analyzed underwent substantial solid-state transformation
- moisture sorption mass change of the starting mass [1]: about 0.4%
- Interconversion: Analysis by XRPD (solid form after equilibration) [2]: Form B

Structure (SMILES): CCOc1cc(C(CS(C)(=O)=O)N2C(=O)c3cccc(NC(C)=O)c3C2=O)ccc1OC (single isomer, unassigned; (+)) [Form B, (+)-2-[1-(3-ethoxy-4-methoxyphenyl)-2-methylsulfonylethyl]-4-acetylaminoisoindoline-1,3-dione]
- Stability: Analysis by XRPD (solid form after stress) [3]: stable; also recorded: Form B
- Stability: Appearance [3]: White solid
- Stability: Analysis by XRPD (solid form after equilibration) [3, 7]: stable; also recorded: Form B
- Stability: Analysis by XRPD (solid form after equilibration) [3, 8]: stable; also recorded: Form B
- Stability: Analysis by XRPD (solid form after equilibration) [3, 10]: stable; also recorded: Form B
- physical stability upon compression (XRPD) [4]: substantially physically stable
- hygroscopicity [1]: substantially nonhygroscopic
- XRPD pattern / solid form after full adsorption/desorption cycle [1]: substantially unchanged; also recorded: none of the forms analyzed underwent substantial solid-state transformation
- moisture sorption mass change of the starting mass [1]: about 0.6%

Structure (SMILES): CCOc1cc(C(CS(C)(=O)=O)N2C(=O)c3cccc(NC(C)=O)c3C2=O)ccc1OC (single isomer, unassigned; (+)) [Form F, (+)-2-[1-(3-ethoxy-4-methoxyphenyl)-2-methylsulfonylethyl]-4-acetylaminoisoindoline-1,3-dione]
- hygroscopicity [1]: substantially nonhygroscopic
- XRPD pattern / solid form after full adsorption/desorption cycle [1]: substantially unchanged; also recorded: none of the forms analyzed underwent substantial solid-state transformation
- moisture sorption mass change of the starting mass [1]: about 0.2%
- Interconversion: Analysis by XRPD (solid form after equilibration) [2]: stable; also recorded: Form F

Structure (SMILES): CCOc1cc(C(CS(C)(=O)=O)N2C(=O)c3cccc(NC(C)=O)c3C2=O)ccc1OC (racemic) [Racemic Compound, 2-[1-(3-Ethoxy-4-methoxyphenyl)-2-methylsulfonylethyl]-4-acetylaminoisoindoline-1,3-dione]
- PDE Specificity Ratio PDE4/PDE2 (human PDE2): >800 fold
- PDE Specificity Ratio PDE4/PDE5 [5]: >12000 fold
- PDE1 (% inhib at 10 μM) (bovine PDE1; 10 μM): 9%
- PDE Specificity Ratio PDE4/PDE1 (bovine PDE1; from Table 1 data): >2700 fold
- PDE Specificity Ratio PDE4/PDE3 [6]: >670 fold
- IC50 (PDE4 (from U937 cells)): 81.8 nM
